Reference: patent US20090208462A1, “Methods of Treatment” (IMPERIAL INNOVATIONS LIMITED, priority 2004, published 2009)
“Also recorded” adds a separate entry of the source.

Assays:
[1] = tested on: melanopsin transduction cascade; assay: Properties of the melanopsin transduction cascade: drug effects on light evoked current; type: cell-based, mouse; settings: for effect on light induced current / effect on light evoked current / effect on photoresponses: 420 nm 10 sec; for effect on light induced current / effect on light evoked current / effect on photoresponses / effect on light evoked currents: 9-cis retinal 20 μM; for effect on light evoked currents: 420 nm 10 sec 8×10^14 photons/cm^2/s
Experimental: (§1) Mouse Neuro-2a cells (American Type Culture Collection; Cat no. CCL-131) were maintained at 37° C. in D-MEM, Dulbecco's Modified Eagle Medium with GlutaMAX™ I, 4500 mg/l D-Glucose, Sodium Pyruvate (D-MEM, Invitrogen) with 10% foetal bovine serum, 1% non-essential amino acids and 20 μg/ml gentomycin in a 5% CO2 atmosphere. Cells were trypsintsed, split and cultured at 1×10^5/ml in 90 mm dishes for 24 hours prior to transfection with plasmid vectors using lipofectamine (Invitrogen) in serum-free medium. DNA to lipid ratio was 10 μg DNA: 100 μg lipid. After transfection serum free medium was replaced with normal medium. On the following day, 2-3 days before study, cell differentiation was induced using 10 μM retinoic acid (Provencio et al., 2000). Starting from this point cells were kept in darkness. On the day of recording, glass coverslips serving as a substrate for cell attachment were transferred to the recording chamber. The perfusion solution contained 140 mM NaCl, […], 1 mM MgCl2, 2 mM CaCl2, 5 mM glucose, 10 mM HEPES (pH 7.3-7.4; 24° C.). Successfully transfected cells were identified by EGFP fluorescence under a 480 nm stimulus light using an OLYMPUS BX51WI microscope. At this point, retinal isoforms (20 μM; 9-cis and all-trans from Sigma-Aldrich; 11-cis from Dr R K Crouch, Medical University of S.C.) were added to the perfusion solution as necessary and cells kept in the dark for at least 1 hour before recording. Whole-cell patch-clamp recordings were made with pipettes containing 140 mM KCl, 10 mM NaCl, 1 mM MgCl2, 10 mM HEPES, 10 mM EGTA. Osmolarity was adjusted to 285±5 mosmol (milliosmol) 1^−1 and pH to 7.3-7.4 with KOH. Open pipette resistance was 2-5 MΩ (mega-ohms), and access resistance during recordings was <20 MΩ. Currents were recorded (Axopatch 200B, Axon Instruments) in neurons voltage clamped at holding potentials of −50 mV (milli-volt). The records were filtered at 1 kHz (kilohertz) and sampled at 20 kHz. Drugs were obtained from Sigma Aldrich, with the exception of NEM (N-ethylmaledomide) (Calbiochem), and DL-AP5, NF023, KT5720, U73122 and thapsigargin (all Tocris Cookson), drugs applied in superfusion were applied for 15-20 minutes prior to light stimulation.
(§2) Light stimuli were generated using a Cairn Optoscan Xenon arc source comprising a slit monochromator. Unless otherwise stated al stimuli were 10 sec in duration with a 20 nm half-bandwidth. Irradiance was measured using an optical powermeter (Macam Photometrics) and converted to photon flux. […] The nature of glutamate receptor expression in Neuro-2a cells remains ambiguous, nonetheless we excluded the possibility that this might be the origin of the melanopsin light response by application of the selective NMDA antagonist APV (2-amino-5-phosphonovaleric acid) (100 μM) which had no effect upon the light sensitive current (data not shown)

human melanopsin = target: T1, human melanopsin (Homo sapiens, UniProt Q9UHM6); assay: Retinaldehyde dependence of the light evoked current in melanopsin expressing cells; type: cell-based; settings: for light-induced response to 540 nm stimulation itself: 20 nm half-bandwidth; for light evoked peak inward current after retinal preloading / change in 420 nm light evoked current after 540 nm light exposure: retinal 20 μM; for light evoked peak inward current after retinal preloading: 1 hour, 420 nm, 8×10^14 photons/cm^2/sec; for change in 420 nm light evoked current after 540 nm light exposure: 540 nm 10 mins (2×10^14 photons/cm^2/s), retest 420 nm 10 sec
T1 construct: expressed in transfected cells; host or cells: Mouse Neuro-2a cells (ATCC CCL-131), lipofectamine transfection with the pCMS-EGFP-based melanopsin vector, differentiated with retinoic acid
T1 sequence (Q9UHM6 1-478): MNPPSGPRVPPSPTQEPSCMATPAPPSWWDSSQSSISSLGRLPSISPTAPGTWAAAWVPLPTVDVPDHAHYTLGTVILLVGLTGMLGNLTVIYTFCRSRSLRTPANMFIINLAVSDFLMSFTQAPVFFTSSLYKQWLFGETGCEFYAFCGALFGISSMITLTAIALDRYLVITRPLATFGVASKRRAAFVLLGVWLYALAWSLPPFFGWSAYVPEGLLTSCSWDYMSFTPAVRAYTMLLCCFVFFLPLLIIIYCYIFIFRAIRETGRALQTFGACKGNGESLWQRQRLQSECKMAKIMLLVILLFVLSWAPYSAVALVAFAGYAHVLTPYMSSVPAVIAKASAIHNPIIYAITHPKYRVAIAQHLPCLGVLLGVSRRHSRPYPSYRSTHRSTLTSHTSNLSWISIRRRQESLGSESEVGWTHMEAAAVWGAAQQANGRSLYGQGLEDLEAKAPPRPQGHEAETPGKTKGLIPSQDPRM
Experimental: as §1, §2

Neuro-2a cells [2] = assay: Whole cell recordings of light evoked current in Neuro-2a cells expressing human melanopsin; type: cell-based, mouse
Description: The full length coding sequence of human melanopsin was amplified from retinal cDNA using Pfu-Turbo DNA polymerase (Stratagene) and the following restriction tagged primers: […]
The product was cloned into the pLITMUS28 Vector (New England Biolabs) and sequenced to confirm that there was no deviation from the reported sequence NM_033282; SEQ ID NO: 1). The product was subsequently cloned into the pCMS-EGFP vector (BD Biosciences), such that expression would be driven by the CMV immediate early promoter. A C-terminal 6×His-tagged melanopsin construct was generated in a similar manner, using the following primers: […]
as §1, §2

Neuro-2a cells [3] = assay: Spectral sensitivity of the light evoked current (pCI-neo human melanopsin); type: cell-based, mouse; settings: 11-cis retinal, mean±SEM
Experimental: For analyses of spectral sensitivity EGFP expression was excluded by employing the pCI-neo mammalian expression vector (Promega).
as §1, §2
In order to assess the correspondence, if any, between the Neuro-2a light response and these action spectra we assessed cellular responses to stimuli ranging from 300 to 540 nm in cells transfected with a pCI-neo expression vector (Promega) driving human melanopsin. EGFP was not included as a marker of expression for these experiments because of its light absorbing and fluorescent properties. […]

## NC(CCCP(=O)(O)O)C(=O)O (racemic) [APV, 2-amino-5-phosphonovaleric acid]
[1]; 100 μM, data not shown
  effect upon the light sensitive current: no effect

## Nc1nc2c(nc(Br)n2[C@@H]2O[C@@H]3COP(=O)(O)O[C@H]3[C@H]2O)c(=O)[nH]1 [8-Br-cGMP]
[1]; 1 mM in pipette
  effect on light response: abolished
[1]; in patch pipette, 100 μM and 1 nM
  effect on light induced current: dose dependent suppression

## CC1=C(/C=C/C(C)=C\C=C\C(C)=C\C=O)C(C)(C)CCC1 [9-cis retinal]
Human melanopsin
  light-induced response to 540 nm stimulation itself: did not in itself evoke
  light evoked peak inward current after retinal preloading: Significant photosensitivity
  change in 420 nm light evoked current after 540 nm light exposure: only a small potentiation
Human melanopsin; listed as 9-cis-retinal
  light evoked peak inward current after retinal preloading: more responsive

## CC1=C(/C=C/C(C)=C/C=C/C(C)=C/C=O)C(C)(C)CCC1 [11-cis retinal]
Human melanopsin
  light evoked peak inward current after retinal preloading: Significant photosensitivity; also recorded: significantly more effective
Human melanopsin; listed as 11-cis-retinal
  light evoked peak inward current after retinal preloading: more responsive

## [Cd+2] [Cd^2+]
[1]; 100 μM, and/or removal of calcium from perfusate
  effect on light evoked current: little significant effect

## Nc1nc2c(ncn2[C@@H]2O[C@H](COP(=O)(O)OP(=O)(O)OP(O)(O)=S)[C@@H](O)[C@H]2O)c(=O)[nH]1 [GTPγS]
[1]; 1 mM in patch pipette
  effect on photoresponses: largely abolished; also recorded: abolish

## CCCCCCOC(=O)[C@]1(O)C[C@@H]2O[C@@]1(C)n1c3ccccc3c3c4c(c5c6ccccc6n2c5c31)C(=O)NC4 [KT5720]
[1]; 1 μM
  effect on light induced current: did not affect

## CCN1C(=O)C=CC1=O [NEM, N-ethylmaledomide]
[1]; 50 μM in bath
  effect on light evoked currents: no effect
[1]; 50 μM in bath, listed as N-ethyl
  effect on light evoked currents: did not antagonise

## O=C(Nc1cccc(C(=O)Nc2ccc(S(=O)(=O)O)c3cc(S(=O)(=O)O)cc(S(=O)(=O)O)c23)c1)Nc1cccc(C(=O)Nc2ccc(S(=O)(=O)O)c3cc(S(=O)(=O)O)cc(S(=O)(=O)O)c23)c1 [NF023]
[1]; up to 1 μM in bath
  effect on light evoked currents: no effect; also recorded: did not antagonise

## Cn1cc(C2=C(c3cn(CCCSC(=N)N)c4ccccc34)C(=O)NC2=O)c2ccccc21 [RO31-8220]
[1]; 100 nM
  effect on light induced current: did not affect

## COc1ccc2c(c1)CC[C@@H]1[C@@H]2CC[C@]2(C)[C@@H](NCCCCCCN3C(=O)C=CC3=O)CC[C@@H]12 [U73122]
[1]; 50 μM
  effect on light induced current: did not affect; also recorded: did not block

## CC1=C(/C=C/C(C)=C/C=C/C(C)=C/C=O)C(C)(C)CCC1 [all-trans retinal]
Human melanopsin
  light-induced response to 540 nm stimulation itself: did not in itself evoke
  light evoked peak inward current after retinal preloading: modest light response
  change in 420 nm light evoked current after 540 nm light exposure: large increase; also recorded: three-fold increase

## Cc1ccc(C(=O)Nc2ccc(S(=O)(=O)O)c3cc(S(=O)(=O)O)cc(S(=O)(=O)O)c23)cc1NC(=O)c1cccc(NC(=O)Nc2cccc(C(=O)Nc3cc(C(=O)Nc4ccc(S(=O)(=O)O)c5cc(S(=O)(=O)O)cc(S(=O)(=O)O)c45)ccc3C)c2)c1 [suramin]
[1]; 100 μM in bath
  effect on photoresponses: largely abolished; also recorded: abolish

## C/C=C(/C)C(=O)O[C@H]1C(C)=C2[C@H]([C@@H]1OC(=O)CCCCCCC)[C@@](C)(OC(C)=O)C[C@H](OC(=O)CCC)[C@@]1(O)[C@H]2OC(=O)[C@@]1(C)O [thapsigargin]
[1]; 5 to 10 μM in zero calcium perfusates for 15-20 mins
  effect on light evoked current: abolished

B1: human melanopsin: opsin photoactivator, SEQ ID NO:2, expressed from CMV-driven plasmid vector in Neuro-2a cells (protein, listed as Homo sapiens)
chain: MNSGRVSTSCMATASWWDSSSSSSGRSSTAGTWAAAWVTVDVDHAHYTGTVVGTGMGNTVYTCRSRSRTANMNAVSDMSTAVTSSYKWGTGCYACGAGSSMTTAADRYVTRATGVASKRRAAVGVWYAAWSGWSAYVGTSCSWDYMSTAVRAYTMCCVYCYRARTGRATGACKGNGSWRRSCKMAKMVVSWAYSAVAVAAGYAHVTYMSSVAVAKASAHNYATHKYRVAAHCGVGVSRRHSRYSYRSTHRSTTSHTSNSWSRRRSGSSVGWTHMAAAVWGAAANGRSYGGDAKARGHATGKTKGSDRM
modifications: Human melanopsin
Neuro-2a cells [2]; 420 nm, 10 sec, 8×10^13 or 8×10^14 photons/cm^2/sec, whole cell recording
  light evoked current, intensity dependence: intensity dependent sustained inward current
Neuro-2a cells [2]; Neuro-2a cells expressing human melanopsin, 9-cis retinal 20 μM, 1 hour, 420 nm, 10 sec stimulus
  cellular response to light exposure: marked cellular response
Neuro-2a cells [2]; absence of exogenous retinal
  light sensitivity: not light sensitive
Neuro-2a cells [2]; light-activated current, Neuro-2a cells
  reversal potential of the response: 0 to −10 mV
Neuro-2a cells [2]; voltage ramp −100 to +100 mV, linear between −100 and −50 mV, 9-cis retinal, mean±SEM, n=13
  peak light evoked slope conductance: 6.46±0.82 nS
Neuro-2a cells [3]; 360 nm, 3×10^14 photons/cm^2/s
  light evoked current: 72.5±19 pA
Neuro-2a cells [3]; 420 nm, 8×10^14 photons/cm^2/s
  light evoked current: 80±11 pA
Neuro-2a cells [3]; 440 nm, 2×10^15 photons/cm^2/s
  light evoked current: 32.7±14 pA
Neuro-2a cells [3]; 490 nm
  light evoked current: 8.5±1.2 pA
Neuro-2a cells [3]; 540 nm, 2×10^14 photons/cm^2/s
  light evoked current: 2.0±1.2 pA
